Experimental data from patent publication US9260382B2, “Methods of reducing virulence in bacteria” (priority 2010, dated 2016).

System: hrpA promoter (T3SS)
Assay: hrpA promoter-probe phrpA in Erwinia amylovora 273, flow cytometry
Format: cell-based
Settings: Ea273 (phrpA), HIM + 100 μM compound
Procedure: Wild-type Erwinia amylovora 273 was used in this study. The promoter-probe plasmid phrpA was constructed as follows. The hrpA promoter region of Erwinia amylovora 273 was amplified and cloned into pPROBE-NT to produce PhrpA. Plasmid PhrpA was electroporated into Erwinia amylovora 273. Expression of hrpA was analyzed using a FACS Calibur flow cytometer (BD Biosciences, CA). Wild-type Erwinia amylovora 273 containing phrpA was cultured in a hrp-inducing medium (HIM) containing dimethyl sulfoxide (DMSO; solvent of chemical compounds), or HIM supplemented with 100 μM of each compound, and promoter activity was assessed at 6 h and 9 h by measuring GFP intensity using flow cytometry (Table 19).

Compound	Avg MFI ± SD, hrpA expression (6 h)	Avg MFI ± SD, hrpA expression (9 h)
O=C(/C=C/c1ccc([N+](=O)[O-])cc1)NO [Compound 155, trans-4-Nitrocinnamohydroxamic acid]	108.4 ± 8.5	132.5 ± 2.6
CN(C(=O)c1ccc(/C=C/C(=O)O)cc1)c1ccccc1 [Compound 167, trans-4-(Carbo-N-methyl-phenylamide)cinnamic acid]	729.7 ± 67.5	707.3 ± 55.9
Benzoic acid [Compound 034]	48.1 ± 5.4	32.6 ± 1.9
O=C(O)COc1ccccc1 [Compound 009, Phenoxyacetic acid]	342.7 ± 24.8	269.9 ± 15.2
Cc1ccccc1/C=C/C(=O)O [Compound 018, trans-2-Methylcinnamic acid]	303.8 ± 8.7	262.5 ± 9.3
O=C(O)C#Cc1ccccc1 [Compound 136, Phenylpropiolic acid]	261.7 ± 1.0	307.0 ± 9.3
O=C(O)/C=C/c1ccc(C(=O)O)cc1 [Compound 025, trans-4-Carboxycinnamic acid]	421.0 ± 10.6	496.7 ± 98.9
O=C(O)/C=C/c1ccc(C(=O)Cc2ccccc2)cc1 [Compound 164, trans-4-(Benzylcarbonyl)cinnamic acid]	155.7 ± 22.2	116.4 ± 6.7
O=C(O)/C=C/c1cccc(Cl)c1 [Compound 022, trans-3-Chlorocinnamic acid]	332.9 ± 16.9	238.3 ± 8.7
O=C(O)c1ccc(O)cc1 [Compound 144, 4-Hydroxybenzoic acid]	434.4 ± 22.1	424.7 ± 24.8
O=C(/C=C/c1cccc(O)c1)NO [Compound 130, trans-3-Hydroxycinnamohydroxamic acid]	431.4 ± 4.1	491.0 ± 10.2
O=C(O)/C=C/c1ccc(S)cc1 [Compound 026, trans-4-Mercaptocinnamic acid]	159.7 ± 22.0	44.7 ± 2.7
O=C(O)[C@@H]1C[C@H]1c1ccccc1 (relative stereo) [Compound 010, trans-2-Phenylcyclopropane-1-carboxylic acid]	336.7 ± 28.1	293.0 ± 4.7
O=C(/C=C/c1cccc(Br)c1)NO [Compound 151, trans-3-Bromocinnamohydroxamic acid]	6.3 ± 1.2	3.9 ± 1.2
O=C(/C=C/c1ccccc1O)NO [Compound 129, trans-2-Hydroxycinnamohydroxamic acid]	187.9 ± 1.2	181.0 ± 0.7
O=C(COc1ccccc1)NO [Compound 143, 2-Phenoxyacetohydroxamic acid]	228.7 ± 4.6	178.5 ± 27.1
COc1cccc(/C=C/C(=O)NO)c1 [Compound 158, trans-3-Methoxycinnamohydroxamic acid]	216.2 ± 12.5	250.6 ± 13.9
O=C(O)/C=C/c1cccc(O)c1 [Compound 005, meta-coumaric acid]	1212 ± 47.6	1439.1 ± 97.9
O=C(/C=C/c1ccco1)NO [Compound 163, trans-3-(2-Furyl)acrylhydroxamic acid]	231.5 ± 7.0	196.5 ± 14.9
NC(=O)/C=C/c1ccccc1 [Compound 031, trans-Cinnamamide]	98.0 ± 18.4	88.1 ± 4.6
O=C(/C=C/c1ccc(O)cc1)NCCO [Compound 138, N-(2-Hydroxyethyl)-4-hydroxycinnamamide]	1474.5 ± 30.4	1907.0 ± 39.8
O=C(/C=C/c1cccs1)NO [Compound 161, trans-3-(2-Thienyl)acrylhydroxamic acid]	132.4 ± 13.2	145.0 ± 11.7
O=C(O)/C=C/c1cccs1 [Compound 011, trans-3-(2-Thienyl)acrylic acid]	230.1 ± 5.8	167.3 ± 8.2
O=C(O)/C=C/c1cccnc1 [Compound 013, trans-3-(3-Pyridyl)acrylic acid]	468.3 ± 7.7	245.7 ± 3.1
O=C(O)c1cccc(O)c1 [Compound 145, 3-Hydroxybenzoic acid]	559.4 ± 23.6	529.9 ± 32.0

Compound	Avg MFI ± SD, hrpA expression (6 h)	Avg MFI ± SD, hrpA expression (9 h)
COc1ccccc1/C=C/C(=O)NO [Compound 159, trans-2-Methoxycinnamohydroxamic acid]	256.3 ± 10.8	337.3 ± 15.2
O=C(O)/C=C/c1ccccc1Cl [Compound 021, trans-2-Chlorocinnamic acid]	225.7 ± 35.8	192.7 ± 8.6
O=C(/C=C/c1ccccc1Br)NO [Compound 152, trans-2-Bromocinnamohydroxamic acid]	15.7 ± 2.3	11.1 ± 1.2
O=C(O)CCc1ccc(O)cc1 [Compound 007, 3-(4-Hydroxyphenyl)propionic acid]	1093.1 ± 62.8	1211.0 ± 58.7
O=C(O)/C=C/c1ccc2ccccc2c1 [Compound 035, 3-(2-naphthyl) acrylic acid]	178.9 ± 9.7	89.0 ± 6.2
O=C(O)/C=C/c1ccc(Cl)cc1 [Compound 023, trans-4-Chlorocinnamic acid]	171.8 ± 7.7	125.8 ± 3.9
O=C(O)/C=C/c1ccc([N+](=O)[O-])cc1 [Compound 028, trans-4-Nitrocinnamic acid]	14.4 ± 16.9	4.0 ± 0.3
O=C(/C=C/c1ccc(CO)cc1)NO [Compound 147, trans-4-Hydroxymethylcinnamohydroxamic acid]	688.6 ± 39.2	746.8 ± 96.3
NNC(=O)/C=C/c1ccc(O)cc1 [Compound 133, trans-3-(4-Hydroxyphenyl)acrylohydrazid]	1716.5 ± 33.1	2780.9 ± 58.5
O=C(/C=C/c1ccccc1Cl)NO [Compound 150, trans-2-Chlorocinnamohydroxamic acid]	25.9 ± 3.2	30.5 ± 3.3
O=C(CCc1ccccc1)NO [Compound 139, 3-Phenylpropionohydroxamic acid]	306.3 ± 11.9	286.3 ± 10.0
O=C(/C=C/c1ccccc1[N+](=O)[O-])NO [Compound 157, trans-2-Nitrocinnamohydroxamic acid]	104.6 ± 7.3	96.2 ± 3.3
O=C(NO)[C@@H]1C[C@H]1c1ccccc1 (relative stereo) [Compound 162, trans-2-Phenylcyclopropane-1-carbohydroxamic acid]	711.1 ± 2.8	701.9 ± 2.8
O=C(/C=C/c1ccc(Cl)cc1)NO [Compound 148, trans-4-Chlorocinnamohydroxamic acid]	22.5 ± 3.7	21.8 ± 25.2
O=C(/C=C/c1ccccc1F)NO [Compound 154, trans-2-Fluorocinnamohydroxamic acid]	111.4 ± 15.1	77.8 ± 1.3
Cc1ccc(/C=C/C(=O)O)cc1 [Compound 020, trans-4-Methylcinnamic acid]	208.5 ± 2.7	145.4 ± 3.7
COC(=O)/C=C/c1ccccc1 [Compound 030, Methyl trans-cinnamate]	674.8 ± 252.1	668.5 ± 31.2
Cc1cccc(/C=C/C(=O)O)c1 [Compound 019, trans-3-Methylcinnamic acid]	311.5 ± 18.6	251.6 ± 13.3
COc1cccc(/C=C/C(=O)O)c1 [Compound 016, trans-3-Methoxycinnamic acid]	265.3 ± 24.4	198.5 ± 20.0
O=C(O)/C=C/c1ccc(O)c(O)c1 [Compound 003, 3,4-Dihydroxycinnamic acid]	783.4 ± 80.2	787.3 ± 25.2
O=C(O)/C=C/c1c[nH]cn1 [Compound 014, trans-3-(4-Imidazolyl)acrylic acid]	874.6 ± 23.1	839.2 ± 17.6
O=Cc1ccc(/C=C/C(=O)O)cc1 [Compound 029, trans-4-Formlycinnamic acid]	285.1 ± 40.8	218.3 ± 9.9
Cc1ccc(/C=C/C(=O)NO)cc1 [Compound 142, trans-4-Methylcinnamohydroxamic acid]	126.2 ± 5.6	106.0 ± 13.6
COc1ccccc1/C=C/C(=O)O [Compound 015, trans-2-Methoxycinnamic acid]	342.6 ± 7.0	255.1 ± 1.7
